How the values were obtained:
human mGluR4 = biological target: T1, human mGluR4 (Homo sapiens, UniProt Q14833); experiment: Fluorescent cell based Ca2+ mobilization assay (FLIPR) on HEK-293 cells expressing human mGluR4; conditions: positive allosteric modulation, HEK-293 cells expressing hmGluR4, stimulated by EC25 glutamate; mean of at least three independent experiments in duplicate; read-out: Ca^2+ Flux* (mean EC50)
T1 construct: expressed in transfected cells
T1 sequence (Q14833 33-912): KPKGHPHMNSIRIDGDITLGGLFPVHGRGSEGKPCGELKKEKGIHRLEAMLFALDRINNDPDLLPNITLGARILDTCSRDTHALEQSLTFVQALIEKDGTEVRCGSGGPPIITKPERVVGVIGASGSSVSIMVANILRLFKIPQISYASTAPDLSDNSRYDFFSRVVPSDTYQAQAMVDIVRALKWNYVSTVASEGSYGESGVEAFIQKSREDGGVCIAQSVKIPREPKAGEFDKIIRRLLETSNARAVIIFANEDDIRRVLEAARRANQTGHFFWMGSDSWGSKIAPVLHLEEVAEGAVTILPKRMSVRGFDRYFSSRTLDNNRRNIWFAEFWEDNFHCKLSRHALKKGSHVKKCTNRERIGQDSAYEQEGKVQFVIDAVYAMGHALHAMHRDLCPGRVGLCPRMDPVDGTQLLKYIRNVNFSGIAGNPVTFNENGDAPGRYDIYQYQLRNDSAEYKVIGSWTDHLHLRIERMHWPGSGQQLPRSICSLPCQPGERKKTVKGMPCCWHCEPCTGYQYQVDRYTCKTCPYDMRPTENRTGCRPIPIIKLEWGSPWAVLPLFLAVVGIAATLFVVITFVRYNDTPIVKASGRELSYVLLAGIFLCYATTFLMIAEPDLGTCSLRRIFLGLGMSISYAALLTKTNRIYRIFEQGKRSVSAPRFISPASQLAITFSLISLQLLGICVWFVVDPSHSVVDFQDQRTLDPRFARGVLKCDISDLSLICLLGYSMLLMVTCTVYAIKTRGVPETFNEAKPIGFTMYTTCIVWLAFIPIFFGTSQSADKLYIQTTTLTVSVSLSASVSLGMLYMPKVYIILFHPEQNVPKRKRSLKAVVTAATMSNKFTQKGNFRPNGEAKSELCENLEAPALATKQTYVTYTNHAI

Structure (SMILES) | melting point | EC50 (human mGluR4)
COCCN1CCc2sc(Nc3ccc(F)cn3)nc2-c2c[nH]nc21 [Compound 1-15, N-(5-Fluoropyridin-2-yl)-6-(2-methoxyethyl)-4,5,6,8-tetrahydropyrazolo[3,4-b]thiazolo[4,5-d]azepin-2-amine] | 218 °C | 100 to 1000 nM
CCN1CCc2sc(Nc3ncc(F)cn3)nc2-c2c[nH]nc21 [Compound 1-34, 6-Ethyl-N-(5-fluoropyrimidin-2-yl)-4,5,6,8-tetrahydropyrazolo[3,4-b]thiazolo[4,5-d]azepin-2-amine] | 306 °C | < 100 nM
Cc1cc(CN2CCc3sc(Nc4ncc(F)cn4)nc3-c3c[nH]nc32)on1 [Compound 1-35, N-(5-Fluoropyrimidin-2-yl)-6-((3-methylisoxazol-5-yl)methyl)-4,5,6,8-tetrahydropyrazolo[3,4-b]thiazolo[4,5-d]azepin-2-amine] | 280 °C | < 100 nM
Cc1cccc(Nc2nc3c(s2)CCN(CC2CC2)c2n[nH]cc2-3)n1 [Compound 1-39, 6-(Cyclopropylmethyl)-N-(6-methylpyridin-2-yl)-4,5,6,8-tetrahydropyrazolo[3,4-b]thiazolo[4,5-d]azepin-2-amine] | 285 °C | 100 to 1000 nM
Fc1cccc(Nc2nc3c(s2)CCN(CC2CC2)c2n[nH]cc2-3)n1 [Compound 1-40, 6-(Cyclopropylmethyl)-N-(6-fluoropyridin-2-yl)-4,5,6,8-tetrahydropyrazolo[3,4-b]thiazolo[4,5-d]azepin-2-amine] | 297 °C | 100 to 1000 nM

Next, values leading:

melting point | EC50 (human mGluR4) | Structure (SMILES)
233 °C | < 100 nM | COCC(C)N1CCc2sc(Nc3nccc(C)n3)nc2-c2c[nH]nc21 (centres unmarked) [Compound 1-11, 6-(1-Methoxypropan-2-yl)-N-(4-methylpyrimidin-2-yl)-4,5,6,8-tetrahydropyrazolo[3,4-b]thiazolo[4,5-d]azepin-2-amine]
203 °C | < 100 nM | COCCN1CCc2sc(Nc3cccc(F)n3)nc2-c2c[nH]nc21 [Compound 1-14, N-(6-Fluoropyridin-2-yl)-6-(2-methoxyethyl)-4,5,6,8-tetrahydropyrazolo[3,4-b]thiazolo[4,5-d]azepin-2-amine]
275 °C | < 100 nM | Cc1noc(C)c1CN1CCc2sc(Nc3ncc(F)cn3)nc2-c2c[nH]nc21 [Compound 1-23, 6-((3,5-Dimethylisoxazol-4-yl)methyl)-N-(5-fluoropyrimidin-2-yl)-4,5,6,8-tetrahydropyrazolo[3,4-b]thiazolo[4,5-d]azepin-2-amine]
271 °C | < 100 nM | CC(C)c1nc(CN2CCc3sc(Nc4ncc(F)cn4)nc3-c3c[nH]nc32)co1 [Compound 1-24, N-(5-Fluoropyrimidin-2-yl)-6-((2-isopropyloxazol-4-yl)methyl)-4,5,6,8-tetrahydropyrazolo[3,4-b]thiazolo[4,5-d]azepin-2-amine]
312 °C | < 100 nM | Fc1cnc(Nc2nc3c(s2)CCNc2n[nH]cc2-3)nc1 [Compound 1-25, N-(5-Fluoropyrimidin-2-yl)-4,5,6,8-tetrahydropyrazolo[3,4-b]thiazolo[4,5-d]azepin-2-amine]
